Measurements taken from patent US20120171123A1, “USES AND COMPOSITIONS FOR TREATMENT OF RHEUMATOID ARTHRITIS” (priority 2006, published 2012).
Where two headings read alike, the source gives them in different places. Marks after values point to notes of the source that are not given here.

Key:
[1] = tested on: patients with severe RA who had failed at least one DMARD; test: Study 2 / Study 3 OLE (adalimumab 40 mg eow monotherapy): HUI3 health utility; format: in vivo, human; details: for mean HUI3 change from baseline: week 26 (6 months), monotherapy
Procedure: (§1) In addition to the SF-36 instrument, the Health Utilities Index Mark 3 (HUI3) and the Functional Assessment of Chronic Illness Therapy-Fatigue (FACIT-F) questionnaires were administered at baseline, 12 weeks, and the end of the study.
(§2) The HUI3 scale is 0-1, with “1” denoting perfect health and “0” denoting death. FACIT-F scores range from 0-52, with higher scores representing less fatigue. The SF-36 includes one multi-item scale that assesses eight different dimensions of health, including physical and psychosocial components. For each dimension a value of 0-100 is given, with higher numbers representing less impairment. Changes in HUI3 of ≧0.03, in FACIT-F of ≧4 and in SF-36 of ≧4.4 (physical subscales) and ≧3.1 (mental subscales) are considered clinically meaningful.
The HUI3 was assessed at baseline, and at several time points during the study. Health Utility Index 3 (scale=0-1) measures preference of a health state, with “1” denoting perfect health and “0” denoting death. HUI3 changes of ≧0.03 are considered clinically important. The HUI3 classification system consists of 8 attributes and 5 or 6 levels on each attribute, ranging from full function to severe impairment.
Inclusion criteria for this study included: all patients had severe active disease; and all patients had failed prior DMARD(s).
The Health Utilities Index Mark 3 (HUI3) was assessed at three time points. HUI 3 consists of 8 attributes: vision, hearing, speech, ambulation, dexterity, emotion, cognition, and pain. HUI3 score changes of ≧0.03 are considered clinically important. […] As can also be seen in this figure, the Study 2 study population started with baseline values reflecting a patient population with a more severe disease activity than in Study I, as documented by TJC, SJC, HAQ, CRP, and number of previous DMARDs.
(§3) In addition to clinical parameters, the SF-36 instrument, the Health Utilities Index Mark 3 (HUI3), and the Functional Assessment of Chronic Illness Therapy-Fatigue (FACIT-F) questionnaires were administered at baseline, and at weeks 12, 26, 50, 74, 98, 122, 146 and 170, respectively. The HUI3 scale ranges from 0-1, with “1” denoting perfect health and “0” denoting death. FACIT-F scores range from 0-52, with higher scores representing less fatigue. SF-36 scores range from 0-100 with higher scores indicating improvement in HRQoL. Changes in HUI3 scores of ≧0.03, 1 FACIT-F scores of ≧4, 2 and individual SF-36 domain scores of 5-103 are considered clinically meaningful.

[2] = tested on: patients with severe, active RA; test: Study 2 / Study 3 OLE (adalimumab monotherapy): FACIT-F fatigue; format: in vivo, human
Procedure: as §1, §2
All patients studied had severe, active RA. Patients' fatigue was measured by the FACIT-F, which is validated for RA.
FACIT-F was administered at baseline, at 1 or 2 time points during the study, and at the end of the study. The questionnaire asked each patient the following “Below is a list of statements that other people with your illness have said are important. By circling one (1) number per line, please indicate how true each statement has been for you during the past 7 days.” The questions in the questionnaire used to determine the FACIT score included the following, where each patient indicated the appropriate number (0-4): I feel fatigued; I feel weak all over; I feel listless (“washed out”); I feel tired; I have trouble starting things because I am tired; I have trouble finishing things because I am tired; I have energy; I am able to do my usual activities; I need to sleep during the day; I am too tired to eat; I need help doing my usual activities; I am frustrated by being too tired to do the things I want to do; I have to limit my social activity because I am tired. FACIT-F scores range from 0-52, with higher scores representing less fatigue. FACIT-F changes of ≧4 are considered clinically meaningful.
Data were obtained from a health economics companion study to a pivotal trial of adalimumab, which rolled over into a long-term, open-label extension (OLE) study. […] Patients' fatigue was measured by the FACIT-F questionnaire. FACIT-F was administered at baseline, and at several time points during the study. FACIT-F scores range from 0-52, with higher scores representing less fatigue. Changes in FACIT-F scores of ≧4 were considered clinically meaningful.
as §3

patients with RA = tested on: patients with RA
Text: The ADA pivotal trials were Study I, Study I (both ADA+MTX in MTX partial responders), Study 2 (ADA monotherapy) and Study K (ADA added to standard of care). Patients from the Phase I-III controlled clinical trials of ADA in RA, including the pivotals, were allowed to receive ADA as long-term, open-label therapy in 3 extension studies: 1) Study 18, for ADA monotherapy in the EU, 2) Study 20, for ADA with MTX in NA, and 3) the extension of Study 1, in NA. […] Adverse events are classified as “serious” adverse events based on the following regulatory criteria: fatal, life-threatening, requires inpatient hospitalization, prolongs hospitalization, causes congenital anomaly/birth defect, results in persistent or significant disability/incapacity, an important medical event that jeopardizes the patient and requires medical/surgical intervention to prevent another serious outcome. Serious infections (SI) are defined as “serious adverse events” that are coded under “Infections and Infestations” in the MedDRA coding system. […] 1, 2005 were analyzed in the report described herein. Non-serious infections were not included in this analysis. Serious infections reported during these trials were tabulated and rates were calculated as events per patient-year (E/PY). […] Rates of SI were determined for subsets of patients who, at the time of the SI, had diabetes, or were using concomitant steroids or concomitant MTX.

[3] = tested on: patients with active rheumatoid arthritis; details: Study A (N=2008), 12 weeks; cited from earlier work
[4] = tested on: patients with active rheumatoid arthritis; details: Study A (N=2008), 12 weeks; cited from earlier work; remark: listed apart in the source
[5] = tested on: patients with active rheumatoid arthritis; details: Study A (N=2008), 12 weeks; cited from earlier work; remark: listed apart in the source
[6] = open-label trials, N = 2504, 7951 PY

Substance: adalimumab: human anti-TNF mAb (HUMIRA, Abbott Laboratories), described in U.S. Pat. No. 6,090,382 as D2E7
- patients reaching HUI3 MCID of 0.03 change from baseline ([1]; week 12 through week 170): about 60%
- mean HUI3 change from baseline [1]: 0.18 a, b
- mean HUI3 change from baseline ([1]; listed as ada): 0.18
- mean HUI3 improvement from baseline ([1]; week 50 (1 year)): +0.17
- mean HUI3 improvement from baseline ([1]; week 50 (1 year), listed as ada): 0.17
- mean HUI3 improvement from baseline ([1]; week 170 (3 years)): +0.19
- mean HUI3 improvement from baseline ([1]; week 170 (3 years), listed as ada): 0.19
- FACIT-F change from baseline ([2]; 12 weeks): 7.2
- mean FACIT-F change from baseline ([2]; week 26 (6 months), monotherapy): 8.5 b, c
- mean FACIT-F change from baseline ([2]; week 26 (6 months), monotherapy, listed as ada): 8.5
- mean FACIT-F change from baseline ([2]; week 50): 7.3 ^b
- mean FACIT-F change from baseline ([2]; week 98): 7.2 ^b
- mean FACIT-F change from baseline ([2]; week 146): 7.1 ^b
- mean FACIT-F change from baseline ([2]; week 170): 7.2 ^b
- serious infection rate (patients with RA; 146 patients with diabetes, 427 PY): 0.049 /PY
- patients who experienced a serious infection (patients with RA; 285 of 2504 patients): 11%
- serious infection rate (patients with RA; 2504 patients, 7951 PY, to Mar. 1, 2005): 0.045 /PY
- rate of serious infections (patients with RA; all patients): 4.5 events per 100 PY
- serious infection rate (patients with RA; blinded controlled phases of pivotal trials, 1380 patients): 0.042 /PY
- Pneumonia (patients with RA; human, in vivo): 64 events
- cellulitis (patients with RA; human, in vivo): 29 events
- Septic arthritis (patients with RA; open-label trials): 37 events
- Patients with serious infections, % (patients with RA; [6]): 11.4%
- Serious infection Cellulitis: number of events E (patients with RA; [6]): 29
- Serious infection Cellulitis: rate (E/100PY) (patients with RA; [6]): 0.4 E/100PY
- Serious infection Pneumonia: number of events E (patients with RA; [6]): 64
- Serious infection Pneumonia: rate (E/100PY) (patients with RA; [6]): 0.8 E/100PY
- Serious infection Septic Arthritis: number of events E (patients with RA; [6]): 37
- Serious infection Septic Arthritis: rate (E/100PY) (patients with RA; [6]): 0.5 E/100PY
- rate of serious infections (patients with RA; with diabetes mellitus): 4.9 events per 100 PY
- rate of serious infections (patients with RA; without diabetes mellitus): 4.5 events per 100 PY
- DAS28 (mean), change from baseline [3]: −2.1
- SJC (0-28), change from baseline, median [4]: −7
- TJC (0-28), change from baseline, median [4]: −10
- HAQ (mean), change from baseline [5]: −0.49
